In one data set the target is T1, human GIPR (Homo sapiens, UniProt P48546).
T1 construct: expressed in transfected cells; host or cells: HEK293 (CRE-HEK293, HEK293-GIPR-CRE)
T1 sequence (P48546 22-466): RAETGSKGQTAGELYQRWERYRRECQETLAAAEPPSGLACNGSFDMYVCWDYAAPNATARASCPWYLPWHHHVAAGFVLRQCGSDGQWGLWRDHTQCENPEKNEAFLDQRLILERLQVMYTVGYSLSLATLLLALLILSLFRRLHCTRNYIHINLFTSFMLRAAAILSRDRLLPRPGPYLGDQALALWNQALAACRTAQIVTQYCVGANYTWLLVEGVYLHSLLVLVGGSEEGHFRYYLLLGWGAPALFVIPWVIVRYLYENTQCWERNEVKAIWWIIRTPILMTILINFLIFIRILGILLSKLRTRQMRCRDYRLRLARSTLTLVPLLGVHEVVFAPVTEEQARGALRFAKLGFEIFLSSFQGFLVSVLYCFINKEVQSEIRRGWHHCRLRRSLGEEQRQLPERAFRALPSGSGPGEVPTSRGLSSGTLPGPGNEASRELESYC
Nature of the data set: In vitro receptor activation reporter assay (CRE-Luc, HEK293-GIPR-CRE cells; receptor-mediated cAMP synthesis). Format: cell-based. On the technique in general: A reporter such as luciferase makes a cellular process visible.

Data set [1] can be described thus: Plasma stability, 24 h incubation in mouse plasma (LC-MS). Format: in vitro ADME. The protocol:
(§1) To investigate the stability of the conjugates in mouse, cyno monkey, dog, and human plasma, conjugate mCMD307 was incubated in plasma for 24 h (Table 13). At certain time intervals a sample of plasma was taken and plasma proteins precipitated. Samples were analyzed using LC-MS.

Data set [2] in a line: in vitro. The conditions noted are these: monkey, plasma. It counts as in vitro ADME, cyno monkey. The protocol: as §1
Data set [3] can be described thus: in vitro. It counts as in vitro ADME. The conditions noted are these: plasma. The protocol: as §1
Data set [4] is classed as in vivo, mouse. The protocol:
[…]. Peptide dissolved in PBS (pH 8.2) was administered via i.v. or s.c. route into CD1 mice ([…]). Blood samples were collected at the indicated time points and analyzed by in vitro GLP-1R activity assay. The assay was performed in triplicate. Pharmacokinetic analyses were determined by noncompartmental analysis with WinNonLin.
[…]. It is also noteworthy that although our focus for half-life extension was on the serum-binding ability of the stapled peptide, there may be a combination of effects, for example self-assembly and depoting at the injection site, that led to the delayed onset of Cmax and the extended half-life.
CHOK1 cells stably overexpressed human GLP-1R or GIPR (20 μL of 5000 cells per well) were seeded in a white solid 384 well plate covered with metal lid and incubated overnight. On day 2, the culture medium was replaced by fresh medium containing no FBS (for 0% FBS group). Cells were treated with 5 μL peptide in 12-point dose response, in culture medium with 0.5 mM IBMX in triplicate for 30 min at 37° C., 5% CO2. cAMP dynamic 2 kit from Cisbio was used to detect cAMP level. Briefly, 25 μL of cAMP detection reagent (1:1:38 of cAMP-d2, Cryptate conjugate, lysis buffer) per well was added and incubated at room temperature for 1 h. For cell negative control wells, cAMP detection reagent without d2 was added. […] Animals Animal care and experimental procedures were approved by the Institutional Animal Care and Use Committee (IACUC) of Calibr at the Scripps Research Institute, strictly following the NIH guidelines for humane treatment of animals. Pharmacokinetics of peptides in mice Female CD-1 mice (n=4 per group) from Charles River Laboratory were fasted overnight and administered 100 μL of each peptide in phosphate buffered saline by intravenous (i.v.) or subcutaneous (s.c.) route. Food was provided to mice after blood collection at 3 h time point. Blood was collected into heparin tubes and centrifuged at 3,000×g for 15 min. The resulting plasma were then stored at −80° C. for peptide concentration determination. The concentrations of peptides in plasma at each time point were determined by in vitro cell based activity assay. Briefly, HEK293-GLP-1R-CRE cells were treated with plasma samples at different time points (5-point dose response, starting from 1:10 to 1:100 dilution of each plasma sample) and incubated for 16 h in DMEM with 10% FBS at 37° C. with 5% CO2, and the firefly luciferase activity was then measured. Simultaneously, the same peptides were used to obtain standard curves and parameters for Bottom, Top, EC50, and Hill Slope. Relative luciferase unit (RLU) for each plasma sample was used to calculate the peptide concentrations in plasma (nmol/L), using parameters derived from the standard curve: (RLU=Bottom+(Top−Bottom)/(1+10^(Log EC50−Conc.)×Hill Slope)) Peptide concentrations in plasma were obtained and plotted against time points to obtain in vivo half-life of each peptide, using WinNonLin Phoenix software (Pharsight Corp, St. Louis, MO). Oral glucose tolerance test (OGTT) Female Charles River CD-1 mice were fasted overnight and then administrated 150 μL of each peptide in PBS (pH=8.2) by i.v. or s.c. route. […]. Body weight and food intake were monitored daily throughout the study. At the end of the experiment, mice were sacrificed, and visceral fat mass was weighed. Collected plasma was used for cholesterol level determination according to the manufacturer's guide (cholesterol assay kit, Abcam, Cambridge, England) and triglyceride level using a triglyceride colorimetric assay kit (Cayman chemical, Ann Arbor, Michigan). Oil red staining Frozen tissue sections of liver were cut at 10 μm and air dried onto the slides. After fixation in 10% formalin for 5 min, the slides were briefly washed with running tap water for 10 min, followed by rinsing with 60% isopropanol. Subsequently, oil red 0 working solution (0.3% oil red 0) was used to stain lipid for 15 min. […]

Data set [5] is described as follows: Acute oral glucose tolerance test (OGTT) in wild-type mice, 2 h and 96 h post injection. Format: in vivo, mouse. The conditions noted are these: 96 h after administration; 10 nmol/kg s.c.
The nature of data set [6]: High-fat-diet-induced obesity (DIO) mouse model, chronic administration. It counts as in vivo. The conditions noted are these: DIO mice.
In another data set the target is human GLP-1R (Homo sapiens, UniProt P43220). Nature of the data set: In vitro receptor activation reporter assay (CRE-Luc, HEK293-GLP-1R-CRE cells; receptor-mediated cAMP synthesis). It counts as cell-based. Also on record: expressed in transfected cells; host or cells: HEK293 (CRE-HEK293, HEK293-GLP-1R-CRE). The conditions noted are these: read-out: EC50 GLP1R.
Chain of human GLP-1R (P43220 24-463): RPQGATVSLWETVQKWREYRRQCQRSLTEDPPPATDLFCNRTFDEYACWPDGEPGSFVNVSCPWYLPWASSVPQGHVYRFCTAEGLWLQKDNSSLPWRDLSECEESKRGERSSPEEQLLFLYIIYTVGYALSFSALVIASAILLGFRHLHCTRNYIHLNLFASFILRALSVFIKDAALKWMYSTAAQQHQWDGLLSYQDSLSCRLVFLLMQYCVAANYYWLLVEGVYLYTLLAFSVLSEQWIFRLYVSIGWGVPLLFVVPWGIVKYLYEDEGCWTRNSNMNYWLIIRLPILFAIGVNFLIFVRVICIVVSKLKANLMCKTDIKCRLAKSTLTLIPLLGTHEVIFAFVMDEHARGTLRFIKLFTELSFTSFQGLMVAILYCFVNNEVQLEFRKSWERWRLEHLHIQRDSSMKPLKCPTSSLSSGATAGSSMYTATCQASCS

Each structure is given as a SMILES string. Read-outs that look alike come from different tables or passages of the source.

Experimental for human GIPR: (§2) HEK293 cells were infected with lentivirus encoding firefly luciferase gene under the control of cAMP responsive element (CRE) promoter (Qiagen, The Netherlands) and then were selected using 1 μg mL^−1 puromycin (Life Technologies, Carlsbad) for 1 week. The surviving cells (referred to as CRE-HEK293) were expanded and then transfected with a G418 selective mammalian expression plasmid encoding human GLP-1R or GIPR. In brief, GLP-1R or GIPR plasmid was transfected into CRE-HEK293 cells using Lipofectamine 2000 and selected with 400 μg mL^−1 Geneticin (Life Technologies, Carlsbad, CA). Single colony stable cell line overexpressing CRE-luciferase and GLP-1R or GIPR (HEK293-GLP-1R-CRE or HEK293-GIPR-CRE) was then established for in vitro activity assay.
(§3) The EC50 of each peptide was determined using GraphPad Prism 6 software (GraphPad, San Diego, CA).
Experimental for human GLP-1R: as §2, §3
HEK293 cells were infected with lentivirus encoding firefly luciferase gene under the control of cAMP responsive element (CRE) promoter (Qiagen, The Netherlands) and then were selected using 1 μg/mL puromycin (Life Technologies, Carlsbad) for 1 week. The surviving cells (referred to as CRE-HEK293) were expanded and then transfected with a G418 selective mammalian expression plasmid encoding human GLP-1R. In brief, GLP-1R plasmid was transfected into CRE-HEK293 cells using Lipofectamine 2000 and selected with 400 μg/mL Geneticin (Life Technologies, Carlsbad, CA). Single colony stable cell line overexpressing CRE-luciferase and GLP1R was then established for in vitro activity assay.

One may read the fraction remaining as what is left of the initial amount, in per cent. High values mean less turnover, low ones more turnover. What is called Tmax is the time from dosing to the highest level. One may read the Cmax as the highest concentration seen after dosing. As a reminder, the Vd is the apparent volume that relates the amount in the body to the concentration in plasma or blood. Usually clearance stands for a measure of how efficiently the substance is removed, as volume per time. Usually half-life stands for the time in which the quantity being followed falls by half. With `CC[C@H](C)[C@H](NC(=O)[C@H](CO)NC(=O)[C@H](Cc1ccc(O)cc1)NC(=O)[C@H](CC(=O)O)NC(=O)[C@H](CO)NC(=O)[C@@H](NC(=O)[C@H](Cc1ccccc1)NC(=O)[C@@H](NC(=O)CNC(=O)[C@H](CCC(=O)O)NC(=O)C(C)(C)NC(=O)[C@@H](N)Cc1ccc(O)cc1)[C@@H](C)O)[C@@H](C)O)C(=O)N[C@@H](Cc1ccc(O)cc1)C(=O)N[C@H]1CCCCNC(=O)CN(C(=O)CCNC(=O)CCOCCOCCOCCNC(=O)CCCCCCCCCCCCCCCCC(=O)O)CC(=O)NCCCC[C@@H](C(=O)N[C@@H](Cc2ccccc2)C(=O)N[C@H](C(=O)N[C@@H](CC(N)=O)C(=O)N[C@@H](Cc2c[nH]c3ccccc23)C(=O)N[C@@H](CC(C)C)C(=O)N[C@@H](CC(C)C)C(=O)N[C@@H](C)C(=O)NCC(=O)NCC(=O)N2CCC[C@H]2C(=O)N[C@@H](CO)C(=O)N[C@@H](CO)C(=O)NCC(=O)N[C@@H](C)C(=O)N2CCC[C@H]2C(=O)N2CCC[C@H]2C(=O)N2CCC[C@H]2C(=O)N[C@@H](CO)C(N)=O)C(C)C)NC(=O)C(C)(C)NC(=O)[C@H](C)NC(=O)[C@H](C)NC(=O)[C@H](CCC(N)=O)NC(=O)[C@H](CCCCN)NC(=O)[C@H](CC(=O)O)NC1=O` [mCMD307, YAibEGT-FTSDY-SIYXD-KQAAAib-XFVNW-LLAGG-PSSGA-PPPS-NH2 (where each X is K) (SEQ ID NO: 39)], the EC50 at human GIPR (Table 8, read-out: EC50 GIPR) amounted to 0.01 nM; at human GIPR (unnumbered table, run 02/19, read-out: EC50 GIPR 02/19), 0.04 nM; on human GLP-1R (Table 7), 0.01 nM; on human GLP-1R (Table 8), 0.03 nM. Also, the fraction remaining at 24 h in data set [1] was 53%; in the data set “in vitro [2]” it was 87%; in “in vitro [3]” (dog), 92%; in the data set “in vitro [3]” (human), 92%. In data set [4] (Table 6, plasma, route not given), the AUC0-last amounted to 59200 ± 6810 ng·h/mL. The Tmax in data set [4] (Table 6, plasma, route not stated in table (s.c. 1 mg kg-1 / i.v. 0.3 mg kg-1 per FIG. 3)) was found to be 2.33 ± 1.16 h. In addition, the maximum concentration (Cmax) in data set [4] (mouse, in vivo) was 4710 ± 659 ng/mL. Further, in data set [4] (mouse, in vivo), the distribution volume (Vd) was found to be 0.18 ± 0.05 L/kg. Besides, in data set [4] (mouse, in vivo), the clearance amounted to 0.28 ± 0.04 mL/min/kg. Moreover, in data set [4] (mouse, in vivo), the half-life is 696 ± 51 min. Moreover, the fasted glucose levels result in data set [5] is given as “significantly reduce fasted glucose levels”. In data set [5], the “glucose handling (OGTT) versus vehicle” value is “more significant improvements in handling glucose”. The “body weight, food intake” value in data set [6] (40 μg/kg, FIG. 5A) is given as “significantly reduced body weight food intake”. Also, the fed blood glucose result in data set [6] (day 21, versus PBS, FIG. 5B) is “significantly lower than compared to PBS-treated DIO mice”. The body weight result in data set [6] (s.c., FIG. 5A) is on record as “steady reduction in body weight”. Also, the “fasting blood glucose levels” value in data set [6] (s.c., FIG. 5A) is given as “steady reduction”.

The values above are taken from patent US12329823B2 (The Scripps Research Institute, priority 2021, dated 2025).
